This test addresses T1, CFTR (Homo sapiens, UniProt P13569, DEL508-508).
T1 construct: endogenous in cells; host or cells: primary human bronchial epithelial cells from CF subjects (F508del/MF-HBE), differentiated at air-liquid interface
Description: HBE assay: Ussing chamber assay of CFTR-mediated short-circuit currents. In kind it is cell-based. To be noted: for EC50: read-out: HBE EC50; for activation at 10 µM: read-out: HBE Activity at 10 μM (%). As to the method:
1. Ussing Chamber Assay of CFTR-Mediated Short-Circuit Currents
Ussing chamber experiments were performed using human bronchial epithelial (HBE) cells derived from CF subjects heterozygous for F508del and a minimal function CFTR mutation (F508del/MF-HBE) and cultured as previously described (Neuberger T, Burton B, Clark H, Van Goor F Methods Mol Biol 2011:741:39-54). After four days the apical media was removed, and the cells were grown at an air liquid interface for >14 days prior to use.
(§1) To isolate the CFTR-mediated short-circuit (ISC) current, F508del/MF-HBE grown on Costar® Snapwell™ cell culture inserts were mounted in an Ussing chamber and the transepithelial ISC was measured under voltage-clamp recording conditions (Vhold=0 mV) at 37° C. The basolateral solution contained (in mM) 145 NaCl, 0.83 K2HPO4, 3.3 KH2PO4, 1.2 MgCl2, 1.2 CaCl2), 10 Glucose, 10 HEPES (pH adjusted to 7.4 with NaOH) and the apical solution contained (in mM) 145 NaGluconate, 1.2 MgCl2, 1.2 CaCl2), 10 glucose, 10 HEPES (pH adjusted to 7.4 with NaOH) and 30 μM amiloride to block the epithelial sodium channel. Forskolin (20 μM) was added to the apical surface to activate CFTR, followed by apical addition of a CFTR inhibitor cocktail consisting of BPO, GlyH-101, and CFTR inhibitor 172 (each at 20 μM final assay concentration) to specifically isolate CFTR currents. The CFTR-mediated ISC (μA/cm^2) for each condition was determined from the peak forskolin response to the steady-state current following inhibition.
2. Identification of Corrector Compounds
The activity of the CFTR corrector compounds on the CFTR-mediated ISC was determined in Ussing chamber studies as described above. The F508del/MF-HBE cell cultures were either incubated with the corrector compounds at a range of concentrations in combination with 1 μM Ivacaftor or were incubated with the corrector compounds at a single fixed concentration of 10 μM in combination with 1 μM Ivacaftor for 18-24 hours at 37° C. and in the presence of 20% human serum. The concentration of corrector compounds with 1 μM Ivacaftor during the 18-24 hours incubations was kept constant throughout the Ussing chamber measurement of the CFTR-mediated ISC to ensure compounds were present throughout the entire experiment.
Ussing Chamber Assay of CFTR-mediated short-circuit currents
Ussing chamber experiments were performed using human bronchial epithelial (HIBE) cells derived from CF subjects heterozygous for F508del and a minimal function CFTR mutation (F508del/MIF-HIBE) and cultured as previously described (Neuberger T, Burton B, Clark H, Van Goor F Methods Mol Biol 2011:741:39-54). After four days the apical media was removed, and the cells were grown at an air liquid interface for >14 days prior to use.
as §1, with “KH2PO4,” for “K2HPO4,”
Identification of Corrector Compounds

Setting [1] is: HBE assay, read-out: HBE Max activity (%).
The mark [2] stands for this setting: Table 11, read-out: HBE Max Activity (%).
Where [3] appears, read: Table 10, read-out: HBE Max activity (%).
Setting [4] is: Table 13, read-out: HBE Max Activity (%).
[5] abbreviates: Table 12, read-out: HBE Max Activity (%).

The structures appear in SMILES notation. Like-named read-outs stand apart in the source and are kept apart here.

By EC50 is commonly meant the concentration needed to bring the measured effect to its halfway point.

T1 sequence (P13569 with tags, fused parts or gaps DEL508-508): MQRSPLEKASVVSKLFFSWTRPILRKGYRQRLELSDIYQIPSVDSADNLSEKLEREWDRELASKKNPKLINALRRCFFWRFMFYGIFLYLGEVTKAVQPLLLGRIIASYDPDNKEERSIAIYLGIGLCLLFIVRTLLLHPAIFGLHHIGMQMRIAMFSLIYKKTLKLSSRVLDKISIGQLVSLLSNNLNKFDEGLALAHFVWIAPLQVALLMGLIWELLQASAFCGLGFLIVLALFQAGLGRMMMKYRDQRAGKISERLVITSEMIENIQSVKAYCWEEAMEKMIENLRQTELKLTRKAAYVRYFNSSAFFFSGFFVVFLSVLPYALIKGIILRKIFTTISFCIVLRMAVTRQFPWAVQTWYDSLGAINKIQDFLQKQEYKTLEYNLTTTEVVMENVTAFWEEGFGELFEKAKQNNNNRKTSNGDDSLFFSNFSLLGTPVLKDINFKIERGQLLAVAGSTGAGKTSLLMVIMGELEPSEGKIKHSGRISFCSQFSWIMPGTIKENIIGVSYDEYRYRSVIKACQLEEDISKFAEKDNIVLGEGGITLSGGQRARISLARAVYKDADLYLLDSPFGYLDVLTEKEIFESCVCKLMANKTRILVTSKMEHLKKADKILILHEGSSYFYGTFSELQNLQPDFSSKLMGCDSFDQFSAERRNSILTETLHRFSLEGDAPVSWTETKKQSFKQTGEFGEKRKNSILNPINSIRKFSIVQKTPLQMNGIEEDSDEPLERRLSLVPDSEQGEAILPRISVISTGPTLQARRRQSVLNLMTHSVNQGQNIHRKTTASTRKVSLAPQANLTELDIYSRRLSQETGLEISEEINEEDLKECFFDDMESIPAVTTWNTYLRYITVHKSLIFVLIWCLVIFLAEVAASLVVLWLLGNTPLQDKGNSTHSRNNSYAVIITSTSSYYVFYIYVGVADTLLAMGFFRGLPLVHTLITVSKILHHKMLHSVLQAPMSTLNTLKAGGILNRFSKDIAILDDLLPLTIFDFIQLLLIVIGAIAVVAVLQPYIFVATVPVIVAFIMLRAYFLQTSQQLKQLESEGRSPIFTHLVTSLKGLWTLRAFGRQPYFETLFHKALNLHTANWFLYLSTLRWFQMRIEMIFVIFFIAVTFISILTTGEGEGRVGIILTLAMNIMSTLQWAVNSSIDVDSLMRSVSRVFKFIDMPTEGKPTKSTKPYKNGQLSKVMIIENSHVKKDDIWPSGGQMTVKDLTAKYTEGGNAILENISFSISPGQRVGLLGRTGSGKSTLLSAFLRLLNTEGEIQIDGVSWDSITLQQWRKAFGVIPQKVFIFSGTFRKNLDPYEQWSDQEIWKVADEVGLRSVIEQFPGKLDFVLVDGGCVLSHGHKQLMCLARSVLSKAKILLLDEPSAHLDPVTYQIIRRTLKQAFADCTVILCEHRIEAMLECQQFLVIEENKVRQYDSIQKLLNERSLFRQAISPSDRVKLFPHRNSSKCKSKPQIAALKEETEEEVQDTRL

In the case of `Cc1cccc(C)c1-c1cc2nc(n1)NS(=O)(=O)c1cccc(c1)C(=O)N(Cc1cncc(N(C)C3CCOC3)n1)[C@H](CC(C)(C)C)CO2` (some centres unmarked) [Compound 1349], where the note is “HBE assay”, the EC50 was below 1000 nM. Further, the Emax under setting [1] is above 60%.
As for `Cc1cccc(C)c1-c1cc2nc(n1)NS(=O)(=O)c1cccc(c1)C(=O)N(Cc1cnc(C3CCOCC3)cn1)[C@H](CC(C)(C)C)CO2` [Compound 889], where the note is “Table 11”, the EC50 was 1000 to 3000 nM. The Emax under setting [2] was above 60%.
As to `Cc1cccc(C)c1-c1cc2nc(n1)NS(=O)(=O)c1cccc(c1)C(=O)N(CC1CCC(O)(CO)CC1)[C@H](CC(C)(C)C)CO2` (some centres unmarked) [Compound 908], the EC50 (Table 10) was below 1000 nM. In addition, under setting [3], the Emax is above 60%.
For the molecule `Cc1cccc(C)c1-c1cc2nc(n1)NS(=O)(=O)c1cccc(c1)C(=O)N(Cc1ncc(OCC3(C)COC3)cn1)[C@H](CC(C)(C)C)CO2` [Compound 1360], the EC50 (HBE assay) is below 1000 nM. For the same molecule, the Emax under setting [1] was above 60%.
In the case of `Cc1cccc(C)c1-c1cc2nc(n1)NS(=O)(=O)c1cccc(c1)C(=O)N(Cc1ncc(N3CCOC4(CCC4)C3)cn1)[C@H](CC(C)(C)C)CO2` [Compound 1146], the EC50 (Table 13) was below 1000 nM. For the same molecule, the Emax under setting [4] is above 60%.
As for `Cc1cccc(C)c1-c1cc2nc(n1)NS(=O)(=O)c1cccc(c1)C(=O)N(Cc1ncc(N3CC4CC3CO4)cn1)[C@H](CC(C)(C)C)CO2` (some centres unmarked) [Compound 546], the EC50 (Table 12) is below 1000 nM.
Take `Cc1cccc(C)c1-c1cc2nc(n1)NS(=O)(=O)c1cccc(c1)C(=O)N(Cc1cncc(N3CCC[C@H]3C(C)C)n1)[C@H](CC1CC1)CO2` [Compound 1499]: under “HBE assay, 10 μM”, the activation at 10 µM was above 60%. The EC50 (HBE assay) is below 1000 nM. Moreover, under setting [1], the Emax is above 60%.
Take `Cc1cccc(C)c1-c1cc2nc(n1)NS(=O)(=O)c1cccc(c1)C(=O)N(Cc1ccc(-c3cn[nH]c3)cn1)[C@H](CC(C)(C)C)CO2` [Compound 299]: the EC50 (Table 10) is below 1000 nM. For the same molecule, under setting [3], the Emax was above 60%.
As for `Cc1cccc(C)c1-c1cc2nc(n1)NS(=O)(=O)c1cccc(c1)C(=O)N(Cc1ccn(C3CCC3)n1)[C@H](CC(C)(C)C)CO2` [Compound 461], the EC50 (Table 12) was below 1000 nM. The Emax under setting [5] was above 60%.
`Cc1cccc(C)c1-c1cc2nc(n1)NS(=O)(=O)c1cccc(c1)C(=O)N(Cc1cncc(N3CCCC3C)n1)[C@H](CC(C)(C)C)CO2` (stereo in doubt) [Compound 1366]: the EC50 (HBE assay) is below 1000 nM. Besides, under setting [1], the Emax is above 60%.
As to `Cc1cccc(C)c1-c1cc2nc(n1)NS(=O)(=O)c1cccc(c1)C(=O)N(Cc1cccc(N(CC3CCCO3)C(C)C)n1)[C@H](CC(C)(C)C)CO2` (some centres unmarked) [Compound 1446], for the setting “HBE assay”, the “HBE Max activity (%)” value was “+++ (+++ is >60+)” and the EC50 was below 1000 nM.
With `COc1cc(OC(C)C)cnc1CN1C(=O)c2cccc(c2)S(=O)(=O)Nc2nc(cc(-c3c(C)cccc3C)n2)OC[C@H]1CC(C)(C)C` [Compound 1117], the EC50 (Table 13) is below 1000 nM. For the same molecule, the Emax under setting [4] is above 60%.
For the molecule `COc1cccc(C)c1-c1cc2nc(n1)NS(=O)(=O)c1cccc(c1)C(=O)N(Cc1cncc(N(C)CC(C)(C)C)n1)[C@H](CC(C)(C)C)CO2` [Compound 544], under “Table 12, at 10 μM”, the activation at 10 µM is above 600%.
With `Cc1cccc(C)c1-c1cc2nc(n1)NS(=O)(=O)c1cccc(c1)C(=O)N(Cc1nccc(N(C)C3CCC(C)(C)CC3)n1)[C@H](CC(C)(C)C)CO2` [Compound 435], the EC50 (Table 13) was below 1000 nM. Further, under setting [4], the Emax was above 60%.
On to `COCCN(CCOC)c1cccc(CN2C(=O)c3cccc(c3)S(=O)(=O)Nc3nc(cc(-c4c(C)cccc4C)n3)OC[C@H]2CC(C)(C)C)n1` [Compound 128, (11R)-12-[[6-[Bis(2-methoxyethyl)amino]-2-pyridyl]methyl]-6-(2,6-dimethylphenyl)-11-(2,2-dimethylpropyl)-2,2-dioxo-9-oxa-2λ^6-thia-3,5,12,19-tetrazatricyclo[12.3.1.14,8]nonadeca-1(18),4(19),5,7,14,16-hexaen-13-one], for which the activation at 10 µM was above 60%. The EC50 (Table 10) was below 1000 nM. Under “read-out: HBE Max activity (%)”, the Emax was above 60%.
As for `COC[C@H]1CCCN1c1cccc(CN2C(=O)c3cccc(c3)S(=O)(=O)Nc3nc(cc(-c4c(C)cccc4C)n3)OC[C@H]2CC(C)(C)C)n1` [Compound 276], the EC50 (Table 12) is below 1000 nM. Further, the Emax under setting [5] is above 60%.
For the molecule `Cc1cccc(C)c1-c1cc2nc(n1)NS(=O)(=O)c1cccc(c1)C(=O)N(CC1OCCCC1(C)C)[C@H](CC(C)(C)C)CO2` (single isomer, unassigned) [Compound 35], the activation at 10 µM (Table 11, at 10 μM) was above 60%.
Take `Cc1cccc(C)c1-c1cc2nc(n1)NS(=O)(=O)c1cccc(c1)C(=O)N(Cc1cccc(C3CCCCO3)n1)[C@H](CC(C)(C)C)CO2` (some centres unmarked) [Compound 603]: the EC50 (Table 11) was below 1000 nM. Also, the Emax under setting [2] is above 60%.
For `COC1(C)CN(c2cnc(CN3C(=O)c4cccc(c4)S(=O)(=O)Nc4nc(cc(-c5c(C)cccc5C)n4)OC[C@H]3CC(C)(C)C)nc2)C1` [Compound 585], the EC50 (Table 12) is below 1000 nM. Moreover, under setting [5], the Emax is above 60%.
For the molecule `Cc1cccc(C)c1-c1cc2nc(n1)NS(=O)(=O)c1cccc(c1)C(=O)N(Cc1cnc(N(C)CCOC(C)C)o1)[C@H](CC(C)(C)C)CO2` [Compound 1460], under “HBE assay, 10 μM”, the activation at 10 µM was above 60%.
Consider `CO[C@H]1C[C@@H](Oc2cnc(CN3C(=O)c4cccc(c4)S(=O)(=O)Nc4nc(cc(-c5c(C)cccc5C)n4)OC[C@H]3CC(C)(C)C)nc2)C1` [Compound 1369], for which, for the setting “HBE assay”, the EC50 is below 1000 nM. Moreover, the Emax under setting [1] was above 60%.
Consider `Cc1cccc(C)c1-c1cc2nc(n1)NS(=O)(=O)c1cccc(c1)C(=O)N(CC1CCCOC1)[C@H](CC(C)(C)C)CO2` (some centres unmarked) [Compound 819], for which the EC50 (Table 11) is below 1000 nM.
For the molecule `Cc1cccc(C)c1-c1cc2nc(n1)NS(=O)(=O)c1cccc(c1)C(=O)N(Cc1ncc(N3[C@H](C)CC[C@@H]3C)cn1)[C@H](CC(C)(C)C)CO2` [Compound 535], the activation at 10 µM (Table 13, at 10 μM) is above 600%. Besides, the EC50 (Table 13) is below 1000 nM. The Emax under setting [4] is above 60%.
In the case of `Cc1cccc(C)c1-c1cc2nc(n1)NS(=O)(=O)c1cccc(c1)C(=O)N(Cc1ccc(C3=CCN=N3)cc1)[C@H](CC(C)(C)C)CO2` [Compound 289], the Emax under setting [3] was above 60%.
As for `Cc1cccc(C)c1-c1cc2nc(n1)NS(=O)(=O)c1cccc(c1)C(=O)N(CC1CC3(C1)CC(NC(=O)OC(C)C)C3)[C@H](CC(C)(C)C)CO2` (some centres unmarked) [Compound 1003], the activation at 10 µM (Table 13, at 10 μM) is above 600%.
In the case of `CCOc1ccc(CN2C(=O)c3cccc(c3)S(=O)(=O)Nc3nc(cc(-c4c(C)cccc4C)n3)OC[C@H]2CC(C)(C)C)nc1` [Compound 745], under “Table 11”, the EC50 was below 1000 nM. In addition, under setting [2], the Emax was above 60%.
With `Cc1cccc(C)c1-c1cc2nc(n1)NS(=O)(=O)c1cccc(c1)C(=O)N(Cc1cnc(N3CCOCC3)cn1)[C@H](CC(C)(C)C)CO2` [Compound 505], the EC50 (Table 10) is below 1000 nM. The Emax under setting [3] was above 60%.

The values above are taken from patent US20240150377A1, “MODULATORS OF CYSTIC FIBROSIS TRANSMEMBRANE CONDUCTANCE REGULATOR” (VERTEX PHARMACEUTICALS INCORPORATED, priority 2020, published 2024).
